Among the data in publication PMC12040169 (PLOS Biology, 2025) are viability values, retold here.

This data set in a line: in vitro. The following applies: human, hela cells, % viability.

For orientation: viability means a read-out of living cells in per cent, often relative to untreated cells. For the compound `Cc1ccc(S(=O)(=O)Nc2ccc(Nc3cc(-c4cc5ccccc5o4)ncn3)cc2)cc1` [CBK090976], the viability at 28.5 h, 10 µM is 96.8%.

On to `O=C(Nc1ccc(S(=O)(=O)Nc2ccc(Cl)c(C(F)(F)F)c2)cc1)c1ccc(CN2CCOCC2)cc1` [CBK264777], for which the viability at 28.5 h, 10 µM was determined as 104%. On the same count and under the same terms, with `O=C(c1ccc[nH]1)N1Cc2ccccc2C1` [CBK200319] the figure was 89.4%; with `COC(=O)c1ccccc1Oc1nc(OC)cc(OC)n1` [CBK092217], 110%; with `Nc1ccc(-c2cnc(NCc3ccc4c(c3)OCO4)c(C(=O)Nc3ccc4c(c3)OCCO4)c2)cc1` [CBK138480T], 106%. On the same count and under the same terms, then `Cc1cc(C2CCCCCN2C(=O)c2cc(C3CC3)on2)on1` (stereo not shown) [CBK285414], with 90.1%. Same read-out and setting: with `Cc1cc(C)n(CCCC(=O)N2CC3(CCNCC3)CC2C(=O)O)n1` (stereo not shown) [CBK307174] the figure was 89.5%. As for `CN(C(=O)c1ccc(Cl)c(Cl)c1)[C@H]1CCC[C@H]1N1CCCC1` [CBK003411C], the viability at 28.5 h, 10 µM (bulk resorufin, single well) came to 90%. Regarding `CSc1nnc(CCCNc2cccc(C#N)n2)n1CC(C)C` [CBK306449], the viability at 28.5 h, 10 µM is 96.8%.

Take `O=S(=O)(NCCCn1ccnc1)c1cc(Cl)ccc1Cl` [CBK261767]: the viability at 28.5 h, 10 µM is 105%. For the compound `CCc1cc(Br)ccc1S(=O)(=O)Nc1cccc2cccnc12` [CBK045012], the viability at 28.5 h, 10 µM is 87.8%.

Turning to `CC(C)=NNC(=O)Nc1nonc1N` [CBK027368], the viability at 28.5 h, 10 µM worked out at 99.2%.

On to `COc1ccc(Oc2nccnc2N2CCN(CCCC#N)CC2)cc1OC` [CBK083056T], for which the viability at 28.5 h, 10 µM was 95.5%. The same measure, in the same setting: with `O=C(CSc1nc[nH]n1)Nc1nsc(-c2ccc(Cl)cc2)n1` [CBK267273] the figure was 110%; with `O=C(O)c1ccc(-c2ccc(/C=C/c3[nH]c(=O)[nH]c(=O)c3[N+](=O)[O-])o2)cc1Cl` [CBK267139], 94.9%; with `O=c1c2cccnc2nc(SCCO)n1CC1CCCO1` (stereo not shown) [CBK306113], 80.3%. The same measure, in the same setting: then `CCN(CC)CCN1CCN(c2cc(-c3ccc(SC)cc3)ncn2)CC1` [CBK091203], with 93.3%; and `Cc1nc2ccccn2c1CC(=O)N1CCCC(c2ccc(Cc3cccc(F)c3)cn2)C1` (stereo not shown) [CBK286002], with 91.3%. Take `Cc1cccc(C(=O)Oc2ccc(-n3ccnc3)cc2)c1` [CBK090137]: the viability at 28.5 h, 10 µM is 101%. On the same count and under the same terms, then `Cc1ccc(C)c(OCCNS(=O)(=O)c2cc([N+](=O)[O-])ccc2C)c1` [CBK267393], with 87.1%; and `O=C(NC(c1ccc(-c2ccccc2)cc1)c1cnccn1)C1CCN(CCc2ccc(F)cc2)CC1` (stereo not shown) [CBK147981], with 92.6%. On the same count and under the same terms, then `O=S(=O)(c1ccc(F)c(F)c1F)n1ccc2c(N3CCNCC3)nccc21` [CBK059066C], with 106%; and `O=C(Nc1nnc[nH]1)c1ccccc1CCc1ccccc1` [CBK268616], with 95.9%. Take `O=C(Nc1ccncc1)c1ccc(N2C(=O)c3ccccc3C2=O)cc1` [CBK287803]: the viability at 28.5 h, 10 µM came out at 113%.

Turning to `O=C(O)c1ccc(NS(=O)(=O)c2cc(Cl)sc2Cl)cc1` [CBK034046], the viability at 28.5 h, 10 µM turned out to be 99.9%. With `COc1ccc(CCCN2CCC(C(=O)NC(=O)Nc3cc(OC)c(OC)c(OC)c3)CC2)cc1` [CBK034855], the viability at 28.5 h, 10 µM worked out at 86.3%. Same read-out and setting: then `CC(=O)Nc1cccc(-c2cnc(NCc3ccc4c(c3)OCO4)c(C(=O)NCC3COc4ccccc4O3)c2)c1` (stereo not shown) [CBK138473T], with 116%; and `Cc1cc(C(=O)N2CCCCCC2c2c(Cl)cnn2C)on1` (stereo not shown) [CBK284916], with 99.3%. Same read-out and setting: then `N#Cc1c(C(F)(F)F)cc(-c2ccncc2)nc1SCCN1CCCCCC1` [CBK267451], with 85.3%; and `CSc1ccccc1NC(=O)Cn1c(-c2nonc2N)nc2ccccc21` [CBK266919], with 90%; and `Cn1c(CN2CCCC2)nc2cc(NC(=O)C3CCCCC3)ccc21` [CBK307418], with 98.6%. The same measure, in the same setting: then `c1coc(-c2nc3cnccn3c2NC2CCCC2)c1` [CBK283678], with 90.6%; and `C=CCOc1ccccc1OCCCN1CCN(C)CC1` [CBK269714C], with 95.6%. Consider `CC1CCN(S(=O)(=O)c2cccc(S(=O)(=O)c3cccc(S(=O)(=O)N4CCC(C)CC4)c3)c2)CC1` [CBK261731], for which the viability at 28.5 h, 10 µM amounted to 90%. The same measure, in the same setting: then `O=C(c1ccc(N2CCCC2)cc1)N1CCc2sccc2C1c1ccco1` (stereo not shown) [CBK285707], with 102%. Turning to `COC(=O)CCn1c(-c2ccccn2)cc2cccnc21` [CBK282634], the viability at 28.5 h, 10 µM came to 89.8%. Same read-out and setting: then `Cc1cc2c(o1)c1cnn(CC(=O)N3CCC(C)CC3)c(=O)c1n2C` [CBK284236], with 83.9%; and `CO[C@@]12CC[C@@H](OCC(=O)O)C[C@@H]1N(Cc1ccccc1C)CC2` [CBK307548], with 104%; and `O=C1c2ccccc2C(=O)N1CCCc1nc2c3c4c(sc3ncn2n1)CCCCC4` [CBK268540], with 93.4%. On to `c1ccc(CSc2ccc(-c3ccncc3)nn2)nc1` [CBK287638], for which the viability at 28.5 h, 10 µM is 101%. Still for that read-out and setting: then `CC1=NN(c2nc(-c3ccc(Br)cc3)cs2)C(=O)C1/N=N/c1cccc(CO)c1` (stereo not shown) [CBK262429], with 104%.

Consider `CN(Cc1ccccc1)S(=O)(=O)c1ccc2c(c1)n(C)c(=O)n2C` [CBK266644], for which the viability at 28.5 h, 10 µM was determined as 95.6%. Still for that read-out and setting: then `O=C(COc1ccccc1Cl)Nc1cccc(NC(=O)c2cccc(Cl)c2)c1` [CBK263651], with 106%; and `O=c1nc(C(F)(F)F)n2ccccc2n1` [CBK027683], with 97.2%; and `COc1ccc(Br)cc1C(=O)NCC1(c2ccccc2)CCOCC1` [CBK067051], with 82.7%. Still for that read-out and setting: with `O=c1cc(O)c2sc3nc(-c4ccco4)cc(C(F)(F)F)c3c2[nH]1` [CBK270223] the figure was 98.2%; with `O=C(CC1(C(F)(F)F)NCCN1)c1ccco1` [CBK022373], 82.6%. On to `Cc1cc(C)cc(/N=C2\NC(=O)C(CC(=O)O)S2)c1` (stereo not shown) [CBK286878], for which the viability at 28.5 h, 10 µM was 91.4%.

For the compound `COc1ccc2[nH]cc(CCNC(=O)c3ccc(C)nc3N3CCOCC3)c2c1` [CBK106203], the viability at 28.5 h, 10 µM is 108%. On the same count and under the same terms, then `O=C(c1ccoc1)N1CCC2(CCCN(Cc3cc(=O)[nH]c(=O)[nH]3)C2)C1` (stereo not shown) [CBK132823], with 97.8%. Same read-out and setting: with `OCCN1CCN(c2nc(-c3ccc4c(c3)OCO4)cn3ccnc23)CC1` [CBK037443] the figure was 99.1%; with `CCc1cc(=O)oc2cc(OCC(=O)O)c(Cl)cc12` [CBK265182], 93.9%; with `COCCn1cnnc1CN(C)C(=O)NC(C)c1nc2ccccc2[nH]1` (stereo not shown) [CBK307155], 99.6%.

Turning to `CCN(CC)C(=O)CN(CCc1ccc(OC)c(OC)c1)C(=O)NCCCSC` [CBK158725], the viability at 28.5 h, 10 µM amounted to 94.8%.

Consider `C#CCOC(=O)Nc1cnc(N2CCOCC2)c(C(F)(F)F)c1` [CBK019679], for which the viability at 28.5 h, 10 µM turned out to be 90.5%. The same measure, in the same setting: with `CCC(C)c1ccc(NC(S)=NCc2ccccn2)cc1` (stereo not shown) [CBK266966] the figure was 89.2%; with `CSCCN1CCC(Oc2cncc(OCC3COc4ccccc4O3)n2)C1` (stereo not shown) [CBK084381], 105%. Still for that read-out and setting: with `O=C(NCc1cccs1)c1ccc(-c2ccc(OC(F)(F)F)cc2)nc1` [CBK156221] the figure was 90%; with `O=C(O)c1ccc(NS(=O)(=O)c2cc(C(=O)O)ccc2Br)cc1` [CBK113164], 106%; with `CCOC(=O)n1c(=O)n2n(c1=O)CC=CC2` [CBK023102], 93.9%. The same measure, in the same setting: with `Clc1ccc(Cl)c(N/N=C(\c2ccccc2)c2cccnc2)c1` [CBK015932C] the figure was 96.9%; with `Cc1ccc(S(=O)(=O)NCCSCc2ccc(Cl)c(Cl)c2)cc1[N+](=O)[O-]` [CBK264675], 99.9%.

On to `CCS(=O)(=O)N1CCC(c2onc3c2CCCCC3)CC1` [CBK284497], for which the viability at 28.5 h, 10 µM was 93.5%. Same read-out and setting: with `O=c1nc(CNc2ccc(Br)cc2)[nH][nH]1` [CBK288403] the figure was 86.2%.

For `O=C(Nc1cc(-c2nc3ncccc3o2)ccc1Cl)c1ccc(-c2ccccc2[N+](=O)[O-])o1` [CBK264097], the viability at 28.5 h, 10 µM is 89%. As for `CC(C)c1csc(NC(=O)C2CN(S(=O)(=O)c3ccc(F)cc3)C2)n1` [CBK285944], the viability at 28.5 h, 10 µM was 120%. In the case of `COCc1ccc(C(=O)NCC2CCCOC2)o1` (stereo not shown) [CBK282188], the viability at 28.5 h, 10 µM stood at 83.3%.

Regarding `Cc1ccc(N(CC(=O)N/N=C/C(C)C)S(=O)(=O)c2ccccc2)c(C)c1` [CBK262397], the viability at 28.5 h, 10 µM was found to be 92.5%. Still for that read-out and setting: then `O=C(O)[C@@H]1CCN(Cc2ccccc2)C[C@H]1c1ccccc1` [CBK286840], with 102%. On the same count and under the same terms, with `CC(C)NC(=O)c1cc([C@H]2CC[C@H](CNC(=O)CN3CCCC3)CC2)nc2ccccc12` [CBK285861] the figure was 85.7%.

In the case of `CCc1c(C)nc(SC(C(=O)O)c2ccccc2)c(C#N)c1C` (stereo not shown) [CBK270174], the viability at 28.5 h, 10 µM stood at 94.9%.

On to `CCn1ncc(S(=O)(=O)N2CCCC(c3ccccc3)C2)c1C` (stereo not shown) [CBK282760], for which the viability at 28.5 h, 10 µM came out at 100%.

Turning to `CC1(C)CC(N(Cc2ccccc2)C(=O)Cc2ccco2)CCO1` (stereo not shown) [CBK019561], the viability at 28.5 h, 10 µM was 95.9%. The same measure, in the same setting: then `Cc1ccc2nc(NCCC(=O)O)nc(-c3ccccc3)c2c1` [CBK266537], with 97.4%; and `Cc1nc([N+](=O)[O-])c(SCC(O)CN2CCCCC2)[nH]1` (stereo not shown) [CBK261727], with 88.7%; and `OC(c1ccc2c(c1)OCO2)C1CCCCC1N1CCCCCC1` (stereo not shown) [CBK022779C], with 100%. The same measure, in the same setting: with `CCOC(=O)c1csc(C2CCCN2C(=O)c2ccsc2)n1` (stereo not shown) [CBK304125] the figure was 77.5%; with `O=C(N/N=C/c1cc(O)c(Br)cc1Br)c1ccncc1` [CBK262297], 76.8%. On the same count and under the same terms, with `COc1cccc(CNC2CC2)c1OCc1ccccc1` [CBK270009C] the figure was 90.6%.
